Laboratory results taken from ChEMBL document CHEMBL1145828, “Development of natural product-derived receptor tyrosine kinase inhibitors based on conservation of protein domain fold” (J Med Chem, 2003).
Activity calls are given as the source filed them. The rule behind the calls is not given here.

Experiments:
[1] = target: T1, Vascular endothelial growth factor receptor 2 (Homo sapiens, UniProt P35968); assay: Inhibition of Vascular endothelial growth factor receptor 2 (No effect)
[2] = target: T2, Receptor tyrosine-protein kinase erbB-2 (Homo sapiens, UniProt P04626); assay: Inhibition of ERBB2 receptor kinase
T2 sequence (P04626 whole entry): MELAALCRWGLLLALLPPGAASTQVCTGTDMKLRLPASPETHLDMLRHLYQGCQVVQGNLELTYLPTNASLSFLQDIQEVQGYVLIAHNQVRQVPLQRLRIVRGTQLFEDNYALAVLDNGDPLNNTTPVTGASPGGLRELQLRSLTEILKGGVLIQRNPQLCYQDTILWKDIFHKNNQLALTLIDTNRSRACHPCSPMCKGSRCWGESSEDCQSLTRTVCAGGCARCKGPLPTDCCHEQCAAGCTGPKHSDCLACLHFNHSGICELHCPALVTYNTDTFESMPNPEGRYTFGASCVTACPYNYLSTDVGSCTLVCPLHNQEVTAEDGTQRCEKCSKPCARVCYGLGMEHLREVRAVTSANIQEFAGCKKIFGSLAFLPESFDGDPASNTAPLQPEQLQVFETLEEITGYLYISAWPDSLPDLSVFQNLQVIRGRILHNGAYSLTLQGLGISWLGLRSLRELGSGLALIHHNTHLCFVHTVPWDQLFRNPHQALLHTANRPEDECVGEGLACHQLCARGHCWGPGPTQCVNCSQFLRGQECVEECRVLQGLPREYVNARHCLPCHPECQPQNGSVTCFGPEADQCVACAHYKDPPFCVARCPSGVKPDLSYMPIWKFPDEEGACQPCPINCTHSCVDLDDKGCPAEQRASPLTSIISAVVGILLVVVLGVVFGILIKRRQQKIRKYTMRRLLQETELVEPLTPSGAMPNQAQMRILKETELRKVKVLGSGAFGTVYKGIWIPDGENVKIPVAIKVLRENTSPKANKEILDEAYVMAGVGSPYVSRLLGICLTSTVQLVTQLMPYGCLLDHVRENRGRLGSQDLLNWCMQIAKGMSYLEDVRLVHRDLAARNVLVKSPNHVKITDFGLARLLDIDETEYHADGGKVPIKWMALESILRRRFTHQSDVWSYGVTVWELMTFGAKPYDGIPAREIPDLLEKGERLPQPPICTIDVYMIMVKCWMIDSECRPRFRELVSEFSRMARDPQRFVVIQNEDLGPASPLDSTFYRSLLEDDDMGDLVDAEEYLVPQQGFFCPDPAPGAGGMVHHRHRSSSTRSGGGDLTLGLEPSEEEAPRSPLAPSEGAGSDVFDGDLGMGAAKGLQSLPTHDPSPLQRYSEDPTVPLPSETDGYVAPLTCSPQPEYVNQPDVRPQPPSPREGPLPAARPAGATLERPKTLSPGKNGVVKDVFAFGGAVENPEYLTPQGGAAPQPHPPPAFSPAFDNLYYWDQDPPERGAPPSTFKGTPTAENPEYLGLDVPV

[3] = target: T3, Vascular endothelial growth factor receptor 3 (Homo sapiens, UniProt P35916); assay: Inhibition of Vascular endothelial growth factor receptor 3 (No effect)
[4] = target: T4, Angiopoietin-1 receptor (Homo sapiens, UniProt Q02763); assay: Inhibition of Tyrosine protein kinase receptor TIE-2
T4 sequence (Q02763 whole entry): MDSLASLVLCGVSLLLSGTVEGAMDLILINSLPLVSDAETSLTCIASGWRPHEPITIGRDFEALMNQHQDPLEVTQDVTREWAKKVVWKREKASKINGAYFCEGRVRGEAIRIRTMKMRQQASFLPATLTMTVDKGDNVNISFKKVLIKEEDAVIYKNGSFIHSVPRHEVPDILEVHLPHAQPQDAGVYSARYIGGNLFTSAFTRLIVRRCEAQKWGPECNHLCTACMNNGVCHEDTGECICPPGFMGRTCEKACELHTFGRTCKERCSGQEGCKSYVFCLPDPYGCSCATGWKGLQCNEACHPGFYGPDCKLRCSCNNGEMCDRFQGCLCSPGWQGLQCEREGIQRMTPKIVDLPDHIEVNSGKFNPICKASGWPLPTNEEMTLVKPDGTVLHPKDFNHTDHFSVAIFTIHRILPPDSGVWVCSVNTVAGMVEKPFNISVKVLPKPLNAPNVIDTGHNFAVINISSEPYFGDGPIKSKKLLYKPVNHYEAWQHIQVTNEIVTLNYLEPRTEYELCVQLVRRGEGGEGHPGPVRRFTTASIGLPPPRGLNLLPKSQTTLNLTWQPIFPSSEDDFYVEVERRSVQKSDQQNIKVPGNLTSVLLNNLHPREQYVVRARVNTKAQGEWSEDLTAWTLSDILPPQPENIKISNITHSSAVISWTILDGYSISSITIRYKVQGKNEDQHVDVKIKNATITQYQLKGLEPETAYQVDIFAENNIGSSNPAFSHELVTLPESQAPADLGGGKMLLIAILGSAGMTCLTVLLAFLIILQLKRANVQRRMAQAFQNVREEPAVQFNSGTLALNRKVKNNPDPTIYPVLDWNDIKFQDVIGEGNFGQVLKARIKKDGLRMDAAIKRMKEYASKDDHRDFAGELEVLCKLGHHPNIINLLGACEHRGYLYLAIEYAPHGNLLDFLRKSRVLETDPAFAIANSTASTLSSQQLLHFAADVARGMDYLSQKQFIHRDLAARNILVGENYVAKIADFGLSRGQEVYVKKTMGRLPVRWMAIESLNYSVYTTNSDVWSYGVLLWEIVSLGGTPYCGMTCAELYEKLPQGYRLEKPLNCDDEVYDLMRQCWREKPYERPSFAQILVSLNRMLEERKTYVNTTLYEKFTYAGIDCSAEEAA

[5] = target: T5, Epidermal growth factor receptor (Homo sapiens, UniProt P00533); assay: Inhibition of Epidermal growth factor receptor
T5 sequence (P00533 whole entry): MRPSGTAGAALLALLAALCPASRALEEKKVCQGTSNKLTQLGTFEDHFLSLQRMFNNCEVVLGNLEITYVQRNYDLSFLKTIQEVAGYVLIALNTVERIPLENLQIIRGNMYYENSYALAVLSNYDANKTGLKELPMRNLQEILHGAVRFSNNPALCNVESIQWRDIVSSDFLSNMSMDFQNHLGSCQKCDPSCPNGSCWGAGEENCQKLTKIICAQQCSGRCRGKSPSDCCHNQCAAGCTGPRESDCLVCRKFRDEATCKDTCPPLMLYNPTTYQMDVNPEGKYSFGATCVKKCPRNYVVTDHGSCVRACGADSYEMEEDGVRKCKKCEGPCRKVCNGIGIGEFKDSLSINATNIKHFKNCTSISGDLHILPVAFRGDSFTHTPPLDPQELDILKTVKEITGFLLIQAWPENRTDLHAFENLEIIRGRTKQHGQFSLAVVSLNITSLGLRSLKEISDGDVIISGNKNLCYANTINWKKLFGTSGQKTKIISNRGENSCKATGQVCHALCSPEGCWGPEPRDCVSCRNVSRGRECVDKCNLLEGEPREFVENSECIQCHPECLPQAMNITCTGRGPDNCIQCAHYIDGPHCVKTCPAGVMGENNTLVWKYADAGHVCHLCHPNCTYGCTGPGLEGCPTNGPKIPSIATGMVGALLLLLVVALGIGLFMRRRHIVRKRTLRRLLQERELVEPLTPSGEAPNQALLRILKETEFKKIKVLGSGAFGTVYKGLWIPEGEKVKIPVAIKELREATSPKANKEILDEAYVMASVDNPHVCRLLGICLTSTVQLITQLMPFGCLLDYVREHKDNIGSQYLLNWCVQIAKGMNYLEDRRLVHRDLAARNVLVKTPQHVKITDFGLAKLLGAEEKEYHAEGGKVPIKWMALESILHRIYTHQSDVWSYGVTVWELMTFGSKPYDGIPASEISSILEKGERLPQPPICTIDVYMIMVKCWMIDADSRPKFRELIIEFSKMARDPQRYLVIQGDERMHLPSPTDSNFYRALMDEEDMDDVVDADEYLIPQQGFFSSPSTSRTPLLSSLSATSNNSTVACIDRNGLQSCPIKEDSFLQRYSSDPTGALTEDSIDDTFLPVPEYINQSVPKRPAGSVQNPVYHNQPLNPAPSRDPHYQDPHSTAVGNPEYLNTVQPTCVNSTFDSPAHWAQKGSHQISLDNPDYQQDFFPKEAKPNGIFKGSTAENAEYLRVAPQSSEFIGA

[6] = target: T6, Insulin-like growth factor 1 receptor (Homo sapiens, UniProt P08069); assay: Inhibition of Insulin-like growth factor I receptor (No effect)
T6 sequence (P08069 31-736 limits assumed): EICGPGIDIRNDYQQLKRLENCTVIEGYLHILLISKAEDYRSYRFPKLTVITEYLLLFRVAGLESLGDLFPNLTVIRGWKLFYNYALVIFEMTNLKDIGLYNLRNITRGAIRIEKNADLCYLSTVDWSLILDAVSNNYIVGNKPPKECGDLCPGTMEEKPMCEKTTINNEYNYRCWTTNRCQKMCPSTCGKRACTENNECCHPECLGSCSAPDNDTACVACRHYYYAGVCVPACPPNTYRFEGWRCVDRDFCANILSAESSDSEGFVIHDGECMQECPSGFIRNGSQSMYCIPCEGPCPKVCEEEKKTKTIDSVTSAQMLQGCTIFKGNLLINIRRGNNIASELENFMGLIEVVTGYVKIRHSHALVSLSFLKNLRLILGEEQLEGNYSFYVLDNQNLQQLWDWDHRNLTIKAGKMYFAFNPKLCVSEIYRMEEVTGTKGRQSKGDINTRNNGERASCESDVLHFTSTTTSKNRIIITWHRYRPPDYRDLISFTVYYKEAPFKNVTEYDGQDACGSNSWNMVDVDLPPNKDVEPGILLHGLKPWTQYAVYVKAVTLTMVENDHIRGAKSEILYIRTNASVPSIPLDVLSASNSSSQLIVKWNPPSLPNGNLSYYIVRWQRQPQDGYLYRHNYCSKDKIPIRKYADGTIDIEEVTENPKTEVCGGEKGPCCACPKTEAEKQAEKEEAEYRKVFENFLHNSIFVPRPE
T6 sequence (P08069 741-1367 limits assumed): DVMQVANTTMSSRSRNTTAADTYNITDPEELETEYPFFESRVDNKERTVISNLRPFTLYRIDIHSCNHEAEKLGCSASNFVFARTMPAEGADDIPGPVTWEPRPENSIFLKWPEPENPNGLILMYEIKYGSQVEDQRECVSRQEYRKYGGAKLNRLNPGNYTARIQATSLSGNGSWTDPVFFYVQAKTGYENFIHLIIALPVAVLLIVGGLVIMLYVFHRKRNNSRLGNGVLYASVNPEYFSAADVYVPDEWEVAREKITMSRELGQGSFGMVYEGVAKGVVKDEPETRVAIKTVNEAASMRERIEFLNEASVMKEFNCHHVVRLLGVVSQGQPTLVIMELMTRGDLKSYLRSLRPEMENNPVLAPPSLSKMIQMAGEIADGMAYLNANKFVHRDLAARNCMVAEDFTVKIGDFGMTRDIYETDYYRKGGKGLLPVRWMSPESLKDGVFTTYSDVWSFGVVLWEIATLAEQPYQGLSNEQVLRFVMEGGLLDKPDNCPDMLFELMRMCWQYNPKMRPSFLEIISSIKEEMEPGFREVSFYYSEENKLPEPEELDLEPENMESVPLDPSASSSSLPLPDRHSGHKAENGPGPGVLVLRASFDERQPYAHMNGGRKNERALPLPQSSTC

[7] = target: T4, Angiopoietin-1 receptor; assay: Inhibition of Tyrosine protein kinase receptor TIE-2 (No effect)
[8] = target: T1, Vascular endothelial growth factor receptor 2; assay: Inhibition of Vascular endothelial growth factor receptor 2
[9] = target: T2, Receptor tyrosine-protein kinase erbB-2; assay: Inhibition of ERBB2 receptor kinase (No effect)
[10] = target: T5, Epidermal growth factor receptor; assay: Inhibition of Epidermal growth factor receptor (No effect)
[11] = target: T6, Insulin-like growth factor 1 receptor; assay: Inhibition of Insulin-like growth factor I receptor
[12] = target: T3, Vascular endothelial growth factor receptor 3; assay: Inhibition of Vascular endothelial growth factor receptor 3

SMILES | NI [1] | IC50 [2] [µM] | NI [3] | IC50 [4] [µM] | IC50 [5] [µM] | NI [6] | NI [7] | IC50 [8] [µM] | NI [9] | NI [10] | IC50 [11] [µM] | IC50 [12] [µM]
COC1=CC(=O)C=C(/C=C2\CCCC3CCCCC23)C1=O (configuration not stated) | inactive | > 100 | inactive | 14 | > 100 | inactive | – | – | – | – | – | –
CC1=CCC[C@H]2[C@](C)(CC3=C(O)C(O)=C/C(=N\[C@@H](CO)C(=O)O)C3=O)[C@H](C)CC[C@]12C | – | – | inactive | – | – | inactive | inactive | 20 | inactive | inactive | – | –
COC1=CC(=O)C=CC1=O | inactive | 29 | inactive | – | – | inactive | inactive | – | – | inactive | – | –
CC(O)C(/N=C1\C(O)=CC(=O)C(O)=C1CC1CCCC2CCCCC21)C(=O)O (configuration not stated) | – | – | inactive | 9 | > 100 | – | – | > 50 | inactive | – | 0.5 | –
COC1=CC(=O)C(N[C@@H](CO)C(=O)O)=CC1=O | – | > 100 | inactive | – | – | – | inactive | 8 | – | inactive | > 50 | –
COC1=CC(=O)C=C(Cc2ccccc2)C1=O | inactive | – | inactive | 18 | – | inactive | – | – | inactive | inactive | – | –
CC(O)C(/N=C1C=C(O)/C(=N\C(C(=O)O)C(C)O)C=C/1O)C(=O)O (configuration not stated) | inactive | – | – | 5 | 44 | – | – | – | inactive | – | 6 | 3
